What all share (type): functional, cell-based
For assay [1], the target named is T1, Taste receptor type 2 member 5 (Homo sapiens) (UniProt Q9NYW4).
T1 sequence (whole entry): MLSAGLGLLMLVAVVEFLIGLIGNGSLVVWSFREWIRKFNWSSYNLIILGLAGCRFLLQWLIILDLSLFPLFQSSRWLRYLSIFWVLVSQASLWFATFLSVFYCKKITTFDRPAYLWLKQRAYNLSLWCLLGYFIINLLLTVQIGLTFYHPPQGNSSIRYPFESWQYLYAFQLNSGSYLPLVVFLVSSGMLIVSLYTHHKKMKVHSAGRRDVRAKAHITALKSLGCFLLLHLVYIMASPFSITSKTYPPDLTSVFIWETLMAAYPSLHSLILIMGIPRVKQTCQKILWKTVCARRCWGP
Kind of assay: Agonist activity at recombinant human N-terminal rat ST3 receptor-fused TAS2R5 expressed in HEK293T cells co-expressing Galpha16gust44 assessed as increase in intracellular calcium level at 100 uM by FLIPR assay. (In general: Calcium assays in cells follow changes in intracellular calcium, usually with a dye or a luminescent sensor.)

In assay [2] the target is Taste receptor type 2 member 19 (Homo sapiens) (UniProt P59542). The assay can be described thus: Agonist activity at recombinant human N-terminal rat ST3 receptor-fused TAS2R48 expressed in HEK293T cells co-expressing Galpha16gust44 assessed as increase in intracellular calcium level at 100 uM by FLIPR assay.
Sequence of Taste receptor type 2 member 19 (Homo sapiens) (P59542 whole entry, the tested form may be a part): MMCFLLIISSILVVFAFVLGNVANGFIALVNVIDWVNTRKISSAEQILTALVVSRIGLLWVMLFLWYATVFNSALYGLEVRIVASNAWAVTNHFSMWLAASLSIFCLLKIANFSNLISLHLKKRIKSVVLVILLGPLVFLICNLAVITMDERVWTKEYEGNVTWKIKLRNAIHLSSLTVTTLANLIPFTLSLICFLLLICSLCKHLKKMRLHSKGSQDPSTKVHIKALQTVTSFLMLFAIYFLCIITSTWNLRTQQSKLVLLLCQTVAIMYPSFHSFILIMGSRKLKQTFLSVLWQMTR
For assay [3], the target named is T2, Taste receptor type 2 member 38 (Homo sapiens) (UniProt P59533).
T2 sequence (whole entry): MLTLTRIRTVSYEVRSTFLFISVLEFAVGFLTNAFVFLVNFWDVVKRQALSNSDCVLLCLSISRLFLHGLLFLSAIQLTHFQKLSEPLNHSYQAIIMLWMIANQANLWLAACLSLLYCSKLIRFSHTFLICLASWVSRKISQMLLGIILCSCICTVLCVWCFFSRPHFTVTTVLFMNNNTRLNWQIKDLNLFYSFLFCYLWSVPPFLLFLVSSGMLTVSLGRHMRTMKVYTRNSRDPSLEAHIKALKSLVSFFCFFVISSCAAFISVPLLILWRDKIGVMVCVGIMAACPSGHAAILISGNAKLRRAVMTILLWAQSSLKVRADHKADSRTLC
Kind of assay: Agonist activity at recombinant human N-terminal rat ST3 receptor-fused TAS2R38 expressed in HEK293T cells co-expressing Galpha16gust44 assessed as increase in intracellular calcium level at 100 uM by FLIPR assay.

Assay [4] has as its target T3, Taste receptor type 2 member 31 (Homo sapiens) (UniProt P59538).
T3 sequence (whole entry): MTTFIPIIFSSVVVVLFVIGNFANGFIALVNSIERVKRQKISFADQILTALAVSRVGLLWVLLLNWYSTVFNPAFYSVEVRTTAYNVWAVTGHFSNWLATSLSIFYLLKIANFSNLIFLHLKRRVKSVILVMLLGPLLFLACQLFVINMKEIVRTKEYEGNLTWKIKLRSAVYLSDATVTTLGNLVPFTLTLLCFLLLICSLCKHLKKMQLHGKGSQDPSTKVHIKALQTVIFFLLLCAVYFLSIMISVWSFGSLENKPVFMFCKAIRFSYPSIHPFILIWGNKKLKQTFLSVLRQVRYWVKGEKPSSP
The assay can be described thus: Agonist activity at recombinant human N-terminal rat ST3 receptor-fused TAS2R44 expressed in HEK293T cells co-expressing Galpha16gust44 assessed as increase in intracellular calcium level at 100 uM by FLIPR assay.

For assay [5], the target named is Taste receptor type 2 member 40 (Homo sapiens) (UniProt P59535). The assay can be described thus: Agonist activity at recombinant human N-terminal rat ST3 receptor-fused TAS2R40 expressed in HEK293T cells co-expressing Galpha16gust44 assessed as increase in intracellular calcium level at 100 uM by FLIPR assay.
Sequence of Taste receptor type 2 member 40 (Homo sapiens) (P59535 whole entry, the tested form may be a part): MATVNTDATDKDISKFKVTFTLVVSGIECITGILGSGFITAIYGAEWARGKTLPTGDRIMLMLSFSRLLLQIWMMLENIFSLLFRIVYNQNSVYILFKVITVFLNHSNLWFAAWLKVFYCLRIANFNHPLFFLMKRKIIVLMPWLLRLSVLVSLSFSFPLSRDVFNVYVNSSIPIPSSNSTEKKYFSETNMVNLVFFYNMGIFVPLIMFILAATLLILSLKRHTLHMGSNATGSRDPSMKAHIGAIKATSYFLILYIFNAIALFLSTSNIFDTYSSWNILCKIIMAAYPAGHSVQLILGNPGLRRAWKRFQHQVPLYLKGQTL
Assay [6] has as its target T4, Taste receptor type 2 member 10 (Homo sapiens) (UniProt Q9NYW0).
T4 sequence (whole entry): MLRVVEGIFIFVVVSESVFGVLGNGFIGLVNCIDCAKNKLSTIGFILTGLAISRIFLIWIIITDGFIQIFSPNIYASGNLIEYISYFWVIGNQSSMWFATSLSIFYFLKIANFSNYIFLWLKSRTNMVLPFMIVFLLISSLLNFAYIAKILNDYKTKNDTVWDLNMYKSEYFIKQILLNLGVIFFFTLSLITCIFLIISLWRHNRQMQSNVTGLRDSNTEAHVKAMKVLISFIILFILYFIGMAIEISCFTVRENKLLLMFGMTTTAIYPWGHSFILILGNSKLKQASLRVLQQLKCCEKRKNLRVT
Kind of assay: Competitive-antagonist activity at recombinant human N-terminal rat ST3 receptor-fused TAS2R10 expressed in HEK293T cells co-expressing Galpha16gust44 assessed as inhibition of strychnine-induced increase in intracellular calcium level by measuring maximum signal amplitude at 100 uM by FLIPR assay (reference value: 0.42 +/- 0.09 a.u.).

The target of assay [7] is T5, Taste receptor type 2 member 7 (Homo sapiens) (UniProt Q9NYW3).
T5 sequence (whole entry): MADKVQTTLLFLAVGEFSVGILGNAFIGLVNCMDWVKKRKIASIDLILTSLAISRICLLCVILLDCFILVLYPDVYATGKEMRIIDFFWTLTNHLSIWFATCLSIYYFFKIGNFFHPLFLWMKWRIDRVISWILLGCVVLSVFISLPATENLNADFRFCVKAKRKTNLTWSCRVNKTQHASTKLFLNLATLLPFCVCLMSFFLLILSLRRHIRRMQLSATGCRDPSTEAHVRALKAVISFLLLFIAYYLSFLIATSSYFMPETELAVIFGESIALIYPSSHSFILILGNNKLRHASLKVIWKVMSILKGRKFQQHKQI
The assay can be described thus: Agonist activity at recombinant human N-terminal rat ST3 receptor-fused TAS2R7 expressed in HEK293T cells co-expressing Galpha16gust44 assessed as increase in intracellular calcium level at 100 uM by FLIPR assay.

The target in assay [8] is T4, Taste receptor type 2 member 10 (Homo sapiens). Kind of assay: Competitive-antagonist activity at recombinant human N-terminal rat ST3 receptor-fused TAS2R10 expressed in HEK293T cells co-expressing Galpha16gust44 assessed as inhibition of strychnine-induced increase in intracellular calcium level by measuring maximum signal amplitude at 30 uM by FLIPR assay (reference value: 0.42 +/- 0.09 a.u.).

In assay [9] the target is T1, Taste receptor type 2 member 5 (Homo sapiens). Kind of assay: Antagonist activity at recombinant human N-terminal rat ST3 receptor-fused TAS2R5 expressed in HEK293T cells co-expressing Galpha16gust44 assessed as inhibition of denatonium saccharide-induced intracellular calcium level at 100 uM by FLIPR assay.

The structures appear in SMILES notation. Active and inactive are the calls of the source. No cut-off for these calls is given here.

Regarding `C/C1=C\C[C@H](O)/C(C)=C/[C@H]2OC(=O)[C@@H](C)[C@@H]2CC1`, the result in assay [1], in assay [2] and in [5] was inactive. In addition, the outcome in assay [3], in assay [4] and in assay [7] was Active. Besides, the figures for the Activity in [6] and in [8] were 0.34 a.u and 0.41 a.u, respectively.

For the compound `C/C1=C\C[C@H](O)[C@@H](C)C[C@H]2OC(=O)[C@@H](C)[C@@H]2CC1`, the inhibition entry in assay [9] was “inactive”.

The record behind these values is ChEMBL document CHEMBL4418912, “Methods of identifying antagonists of the hTAS2R46 bitter taste receptor” (2014).
